Experimental data taken from patent US4421911A, “Deoxydesmycosin” (priority 1981, dated 1983).
Converted amounts (≈) assume the structure as drawn. Like-named read-outs stand apart in the source and are kept apart here.

Columns and labels:
Format in all cases: cell-based
[1] = test system: Streptococcus pyogenes 1022; assay: Minimum inhibitory concentration (MIC), Streptococcus pyogenes 1022
Source text: (§1) The minimum inhibitory concentration (MIC) of the compounds of the present invention is illustrated in Table 1.
(§2) *Macrolide registant strain A group (clinical isolates of erythromycin,
(§3) oleandomycin and 16membered macrolide antibiotics registant strains)

[2] = test system: Streptococcus pyogenes N.Y.5; assay: Minimum inhibitory concentration (MIC), Streptococcus pyogenes N.Y.5
[3] = test system: Staphylococcus aureus 0116; assay: Minimum inhibitory concentration (MIC), Staphylococcus aureus 0116
Source text: as §1, §2, §3

[4] = test system: Staphylococcus aureus 0127; assay: Minimum inhibitory concentration (MIC), Staphylococcus aureus 0127
Source text: as §1, §2, §3

[5] = test system: Staphylococcus aureus ATCC6538p; assay: Minimum inhibitory concentration (MIC), Staphylococcus aureus ATCC6538p
[6] = test system: Staphylococcus aureus MS353; assay: Minimum inhibitory concentration (MIC), Staphylococcus aureus MS353
[7] = test system: Staphylococcus aureus MS353AO; assay: Minimum inhibitory concentration (MIC), Staphylococcus aureus MS353AO; settings: macrolide resistant strain A group
Source text: as §1, §2, §3

[8] = test system: Staphylococcus aureus 0119; assay: Minimum inhibitory concentration (MIC), Staphylococcus aureus 0119
Source text: as §1, §2, §3

[9] = Streptococcus pyogenes 1022, macrolide resistant strain A group, read-out: MIC
[10] = Staphylococcus aureus 0116, macrolide resistant strain A group, read-out: MIC
[11] = Staphylococcus aureus 0127, macrolide resistant strain A group, read-out: MIC

| Structure (SMILES) | MIC [1, 9] | MIC [2] | MIC [3, 10] | MIC ([4]; Staphylococcus aureus, 0127) | MIC [5] | MIC [6] | MIC [7] | MIC ([8]; Staphylococcus aureus 0119, macrolide resistant strain A group, read-out: MIC) | MIC [4, 11] | MIC ([8]; Staphylococcus aureus, 0119) | MIC ([1]; Streptococcus pyogenes, 1022) | MIC ([3]; Staphylococcus aureus, 0116) |
| --- | --- | --- | --- | --- | --- | --- | --- | --- | --- | --- | --- | --- |
| CCC1OC(=O)CC(O)C(C)C(OC2OC(C)C(O)C(N(C)C)C2O)C(CC=O)CC(C)C(=O)/C=C/C(C)=C/C1COC1OC(C)CC(OC)C1OC (centres unmarked) [R1 = OH, R2 = H, 4"-deoxy-desmycosin] | 3.1 µg/mL (≈ 4.1 µM) | ≤ 0.05 µg/mL | 1.6 µg/mL (≈ 2.12 µM) | 6.3 µg/mL (≈ 8.33 µM) | 0.4 µg/mL (≈ 0.529 µM) | 0.4 µg/mL (≈ 0.529 µM) | 6.3 µg/mL (≈ 8.33 µM) | 1.6 µg/mL (≈ 2.12 µM) | – | – | – | – |
| CCC1OC(=O)CC(O)C(C)C(OC2OC(C)CC(N(C)C)C2O)C(CC=O)CC(C)C(=O)/C=C/C(C)=C/C1COC1OC(C)C(O)C(OC)C1OC (centres unmarked) [R1 = H, R2 = OH, 4'-deoxy-desmycosin] | 3.1 µg/mL (≈ 4.1 µM) | 0.1 µg/mL (≈ 0.132 µM) | 3.1 µg/mL (≈ 4.1 µM) | – | 0.8 µg/mL (≈ 1.06 µM) | 0.8 µg/mL (≈ 1.06 µM) | 50 µg/mL (≈ 66.1 µM) | – | 12.5 µg/mL (≈ 16.5 µM) | 6.3 µg/mL (≈ 8.33 µM) | – | – |
| CCC1OC(=O)CC(O)C(C)C(OC2OC(C)CC(N(C)C)C2O)C(CC=O)CC(C)C(=O)/C=C/C(C)=C/C1COC1OC(C)CC(OC)C1OC (centres unmarked) [R1 = H, R2 = H, 4', 4"-di-deoxy-desmycosin] | 25 µg/mL (≈ 33.8 µM) | ≤ 0.05 µg/mL | 3.1 µg/mL (≈ 4.19 µM) | – | 0.4 µg/mL (≈ 0.541 µM) | 0.2 µg/mL (≈ 0.27 µM) | 50 µg/mL (≈ 67.6 µM) | – | 12.5 µg/mL (≈ 16.9 µM) | 12.5 µg/mL (≈ 16.9 µM) | – | – |
| CC[C@H]1OC(=O)C[C@@H](O)[C@H](C)[C@@H](O[C@@H]2O[C@H](C)[C@@H](O[C@H]3C[C@@](C)(O)[C@@H](O)[C@H](C)O3)[C@H](N(C)C)[C@H]2O)[C@@H](CC=O)C[C@@H](C)C(=O)/C=C/C(C)=C/[C@@H]1CO[C@@H]1O[C@H](C)[C@@H](O)[C@@H](OC)[C@H]1OC [Tylosin, tylosin, reference compound] | – | 0.2 µg/mL (≈ 0.218 µM) | – | > 100 µg/mL | 0.8 µg/mL (≈ 0.873 µM) | 1.6 µg/mL (≈ 1.75 µM) | > 100 µg/mL | – | – | > 100 µg/mL | > 100 µg/mL | > 100 µg/mL |
